The source of these data is the NIST ThermoML archive (doi:10.1021/acs.jced.6b00429).

What is called vapor or sublimation pressure is the equilibrium pressure above the liquid or solid.

Numbers after ± are expanded uncertainties.

The conditions of the data set: Liquid, Ebulliometric method (Recirculating still).

Consider `OCC(F)(F)C(F)(F)C(F)(F)C(F)F` [2,2,3,3,4,4,5,5-octafluoro-1-pentanol], for which the “vapor or sublimation pressure” value was determined as 53.3 ± 0.5 kPa (394.71 K), 66.7 ± 0.5 kPa (400.93 K) and 80 ± 0.6 kPa (406.16 K).

In the case of `OCC(F)(F)C(F)F` [2,2,3,3-tetrafluoro-1-propanol], the “vapor or sublimation pressure” value amounted to 53.3 ± 0.5 kPa (365.01 K), 66.7 ± 0.5 kPa (370.79 K) and 80 ± 0.6 kPa (375.66 K).
